In EP1232756A1, “DRUGS, DRINKS OR FOODS” (Takara Shuzo Co, Ltd., priority 1999, dated 2001):
Marks after values point to notes of the source that are not given here.

Experiments:
Type in all cases: in vivo
female SD rat [1] = experiment: Agonistic (estrogenic) activity: immature rat uterine weight (Example 1(2)); settings: for Uterine weight / Ratio: substance alone; for Uterine weight: once a day for 3 days, mean ± standard error; for Ratio: uterine weight vs control group (100%), 3 days
Experimental: A 17-days old female SD rat (purchased from Japan SLC) was received together with its mother, weaned at 20 days of age, and subjected to experiments from the next day. Five ml per kg body weight of EGCG (Sigma) or bisphenol-A (hereinafter referred to as BisA, Tokyo Kasei Kogyo) suspended in peanut oil (Nacalai Tesque) was administered orally and forcibly. Peanut oil was administered to a control rat in a similar manner. Administration was carried out once a day for three successive days. The uterine removed 24 hours after the last administration was weighed. BisA or EGCG (80 or 800 mg/kg) was administered. […]

female SD rat [2] = experiment: Antagonistic (anti-estrogenic) activity of EGCG against bisphenol-A, immature rat uterine weight (Example 1(3)); settings: BisA 800 mg/kg + EGCG 800 mg/kg oral at the same time
Experimental: A 17-days old female SD rat (purchased from Japan SLC) was received together with its mother, weaned at 20 days of age, and subjected to experiments from the next day. Five ml per kg body weight of EGCG (Sigma) or bisphenol-A (hereinafter referred to as BisA, Tokyo Kasei Kogyo) suspended in peanut oil (Nacalai Tesque) was administered orally and forcibly. Peanut oil was administered to a control rat in a similar manner. Administration was carried out once a day for three successive days. The uterine removed 24 hours after the last administration was weighed. BisA (800 mg/kg) and EGCG (800 mg/kg) were administered at the same time.

female SD rat [3] = experiment: Anti-estrogenic activity of solution of EGCG in ethanol against bisphenol-A, rat uterine weight (Example 2); settings: for Uterine weight: 30 minutes before BisA; for Ratio: vs control (100%)
Experimental: A 17-days old female SD rat (purchased from Japan SLC) was received together with its mother, weaned at 20 days of age, and subjected to experiments from the next day. BisA was weighed such that it would be administered at 200 or 40 mg/kg and dissolved in a small volume of ethanol. Peanut oil was added thereto to result in a final ethanol concentration of 5%. The resulting mixture was orally administered for three successive days. The uterine removed on the next day was weighed. EGCG was dissolved by adding ethanol and water was then added thereto to adjust the final ethanol concentration to 10%. The solution was orally administered on the day before the administration of BisA and 30 minutes before each of the successive administrations of BisA.

female SD rat [4] = experiment: Anti-estrogenic activity of solution of EGCG in ethanol against 4-nonylphenol, rat uterine weight (Example 3); settings: NP 50 mg/kg oral + EGCG 200 mg/kg oral in 10% ethanol
Experimental: A 16-days old female SD rat (Japan SLC) was purchased together with its mother, weaned at 19 days of age, and subjected to experiments from the next day.
4-Nonylphenol (hereinafter referred to as NP) was weighed such that it would be administered at 50 mg/kg and diluted by adding peanut oil thereto. The resulting mixture was orally administered for three successive days. The uterine removed on the day after the third administration day was weighed. EGCG was dissolved by adding ethanol and water was then added thereto to adjust the final ethanol concentration to 10%. The solution was orally administered 90 minutes before the administration of NP.

female SD rat [5] = experiment: Effect of ethanol concentration on anti-estrogenic activity of EGCG, rat uterine weight (Example 4); settings: for Uterine weight: 90 minutes before BisA; for Ratio: vs control (100%)
Experimental: (§1) A 16-days old female SD rat (Japan SLC) was purchased together with its mother, weaned at 19 days of age, and subjected to experiments from the next day. BisA was weighed such that it would be administered at 40 mg/kg and dissolved in a small volume of ethanol. Peanut oil was added thereto to result in a final ethanol concentration of 5%. The resulting mixture was subcutaneously administered for three successive days. The uterine removed on the day after the third administration day was weighed. EGCG (200 mg/kg) was dissolved by adding ethanol and water was then added thereto to adjust the final ethanol concentration to 10, 5, 1, 0.5 or 0%. The solution was orally administered 90 minutes before the administration of BisA.

female SD rat [6] = experiment: Anti-estrogenic activity of solution of EGCG in ethanol, subcutaneous BisA, rat uterine weight (Example 5); settings: for Uterine weight / Ratio: 30 minutes before BisA; for Ratio: vs control (100%)
Experimental: as §1, with “10” for “10, 5, 1, 0.5”, “30” for “90”

female SD rat [7] = experiment: Dose dependency of anti-estrogenic activity of solution of EGCG in ethanol, rat uterine weight (Example 6); settings: for Uterine weight: 30 minutes before BisA; for Ratio: vs control (100%)
Experimental: as §1, with “subcutaneously or orally” for “subcutaneously”, “EGCG” for “EGCG (200 mg/kg)”, “10%.” for “10, 5, 1, 0.5 or 0%.”, “30” for “90”

[8] = BisA 40 mg/kg oral + EGCG 100 mg/kg oral in 10% ethanol
[9] = BisA 200 mg/kg oral + EGCG 100 mg/kg oral in 10% ethanol
[10] = BisA 200 mg/kg oral + EGCG 200 mg/kg oral in 10% ethanol
[11] = BisA 40 mg/kg s.c. + EGCG 200 mg/kg oral in 0 % ethanol
[12] = BisA 40 mg/kg s.c. + EGCG 200 mg/kg oral in 0.5% ethanol
[13] = BisA 40 mg/kg s.c. + EGCG 200 mg/kg oral in 1 % ethanol
[14] = BisA 40 mg/kg s.c. + EGCG 200 mg/kg oral in 5 % ethanol
[15] = BisA 40 mg/kg s.c. + EGCG 200 mg/kg oral in 10 % ethanol
[16] = BisA 40 mg/kg s.c. + EGCG 200 mg/kg oral in 0% ethanol
[17] = BisA 40 mg/kg s.c. + EGCG 200 mg/kg oral in 10% ethanol
[18] = BisA 40 mg/kg oral + EGCG 40 mg/kg oral in 10% ethanol
[19] = BisA 40 mg/kg subcutaneous + EGCG 40 mg/kg oral in 10% ethanol
[20] = BisA 40 mg/kg subcutaneous + EGCG 100 mg/kg oral in 10% ethanol

Q: Which “increased uterine weight (in words)” value (female SD rat [1]; EGCG alone, 80 or 800 mg/kg oral) does the source give for O=C(O[C@@H]1Cc2c(O)cc(O)cc2O[C@@H]1c1cc(O)c(O)c(O)c1)c1cc(O)c(O)c(O)c1 [EGCG, epigallocatechin gallate] here?
A: Its value is “did not result in increased uterine weight”.

Q: And the Uterine weight (female SD rat [1]; 80 mg/kg oral in peanut oil)?
A: Its Uterine weight is 42.2 ± 1.7 mg.

Q: And the Uterine weight (female SD rat [1]; 800 mg/kg oral in peanut oil)?
A: Its Uterine weight is 39.3 ± 3.2 mg.

Q: And the Ratio (female SD rat [1]; 80 mg/kg oral)?
A: The Ratio was 104%.

Q: And the Ratio (female SD rat [1]; 800 mg/kg oral)?
A: Its Ratio is 97%.

Q: What about the Uterine weight (female SD rat [2]; in peanut oil, mean ± standard error) of the same molecule?
A: Its Uterine weight is 43.0 ± 2.7 mg.

Q: What about the Ratio (female SD rat [2]; vs control (100%)) of the same molecule?
A: The Ratio was 116%.

Q: And the Uterine weight (female SD rat [3]; [8])?
A: The Uterine weight was 41.2 ± 2.2 mg.

Q: What about the Uterine weight (female SD rat [3]; [9]) of the same molecule?
A: Its Uterine weight is 47.4 ± 2.6 mg.

Q: And the Uterine weight (female SD rat [3]; [10])?
A: The Uterine weight was 39.8 ± 4.5 mg.

Q: What about the Ratio (female SD rat [3]; [8]) of the same molecule?
A: The Ratio was 95%.

Q: What about the Ratio (female SD rat [3]; [9]) of the same molecule?
A: Its Ratio is 109%.

Q: And the Ratio (female SD rat [3]; [10])?
A: Its Ratio is 92%.

Q: And the Uterine weight (female SD rat [4]; 90 minutes before NP)?
A: The Uterine weight was 33.7 ± 1.9 mg.

Q: And the Ratio (female SD rat [4]; vs control (100%))?
A: Its Ratio is 109%.

Q: What about the Uterine weight (female SD rat [5]; [11]) of the same molecule?
A: Its Uterine weight is 43.3 ± 1.8 mg.

Q: And the Uterine weight (female SD rat [5]; [12])?
A: Its Uterine weight is 40.9 ± 1.8 mg.

Q: And the Uterine weight (female SD rat [5]; [13])?
A: Its Uterine weight is 40.1 ± 2.0 mg.

Q: And the Uterine weight (female SD rat [5]; [14])?
A: Its Uterine weight is 37.6 ± 1.8 mg.

Q: What about the Uterine weight (female SD rat [5]; [15]) of the same molecule?
A: The Uterine weight was 37.0 ± 1.3 mg.

Q: And the Ratio (female SD rat [5]; [11])?
A: Its Ratio is 161%.

Q: What about the Ratio (female SD rat [5]; [12]) of the same molecule?
A: Its Ratio is 152%.

Q: What about the Ratio (female SD rat [5]; [13]) of the same molecule?
A: The Ratio was 149%.

Q: What about the Ratio (female SD rat [5]; [14]) of the same molecule?
A: The Ratio was 140%.

Q: What about the Ratio (female SD rat [5]; [15]) of the same molecule?
A: Its Ratio is 138%.

Q: What about the Uterine weight (female SD rat [6]; [16]) of the same molecule?
A: The Uterine weight was 50.9 ± 2.2 mg.

Q: What about the Uterine weight (female SD rat [6]; [17]) of the same molecule?
A: The Uterine weight was 36.4 ± 1.4 mg.

Q: What about the “suppression of the increase in uterine weight (in words)” value (female SD rat [6]; BisA 40 mg/kg s.c. + EGCG 200 mg/kg oral without ethanol) of the same molecule?
A: The value was “the increase was not suppressed”.

Q: What about the Ratio (female SD rat [6]; [16]) of the same molecule?
A: Its Ratio is 165%.

Q: And the Ratio (female SD rat [6]; [17])?
A: Its Ratio is 118%.

Q: And the Uterine weight (female SD rat [7]; [18])?
A: Its Uterine weight is 34.8 ± 2.8 mg.

Q: What about the Uterine weight (female SD rat [7]; [8]) of the same molecule?
A: Its Uterine weight is 33.0 ± 4.4 mg.

Q: And the Uterine weight (female SD rat [7]; [19])?
A: The Uterine weight was 44.4 ± 1.5 mg.

Q: And the Uterine weight (female SD rat [7]; [20])?
A: Its Uterine weight is 39.6 ± 1.0 mg.

Q: And the Ratio (female SD rat [7]; [18])?
A: The Ratio was 106%.

Q: What about the Ratio (female SD rat [7]; [8]) of the same molecule?
A: The Ratio was 101** %.

Q: And the Ratio (female SD rat [7]; [19])?
A: The Ratio was 136%.

Q: And the Ratio (female SD rat [7]; [20])?
A: Its Ratio is 121*** %.
